Results: patent US9073974B2, “RGD-containing cyclic peptides” (The Regents of the University of California, priority 2009, dated 2015)
Numbered stars: 1 amine (or outer) side, 2 acyl side, 3 side chain; on linkers, the order of the positions; unused ones are H or OH. Bridge positions count the residues as written; N and C are the ends. Square brackets hold non-standard residues; d marks the D form. Peptide text beside a SMILES is read from it. * marks the point of attachment. Benzoyl(4-NO2) = O=C(c1ccc([N+](=O)[O-])cc1)*; Pro(5R-Ph) = O=C(O)[C@@H]1CC[C@H](c2ccccc2)N1; Benzoyl(4-Ph) = O=C(c1ccc(-c2ccccc2)cc1)*; N(CH2CH2COOH)Gly = O=C(O)CCNCC(=O)O; dBta = N[C@H](Cc1csc2ccccc12)C(=O)O; Cyclohexylacetyl = O=C(CC1CCCCC1)*; X2 = O=C(C1(N[*:1])CCC(O)CC1)[*:2]; NMeR = CN[C@@H](CCCNC(=N)N)C(=O)O; dCit = NC(=O)NCCC[C@@H](N)C(=O)O; hArg = N=C(N)NCCCC[C@H](N)C(=O)O; NMeD = CN[C@@H](CC(=O)O)C(=O)O; dPen = CC(C)(S)[C@@H](N)C(=O)O; Agp = N=C(N)NC[C@H](N)C(=O)O; Nicotinoyl = O=C(c1cccnc1)*; X3 = Cc1nc(C(=O)*)cs1; βAla = NCCC(=O)O; Sar = CNCC(=O)O

biological target: αvβ3 integrin (Homo sapiens, UniProt P05106+P06756); assay: Inhibition of biotinylated LXW7 binding to αvβ3-K562 cells (flow cytometry); design: expressed in transfected cells; host or cells: K562 (gift of Dr. Yoshikazu Takada, UC Davis); settings: LXW9-92: inhibiting the binding of biotinylated LXW7 against αvβ3-K562 cells, LXW7 as internal reference
Sequence (P06756 31-889 limits assumed): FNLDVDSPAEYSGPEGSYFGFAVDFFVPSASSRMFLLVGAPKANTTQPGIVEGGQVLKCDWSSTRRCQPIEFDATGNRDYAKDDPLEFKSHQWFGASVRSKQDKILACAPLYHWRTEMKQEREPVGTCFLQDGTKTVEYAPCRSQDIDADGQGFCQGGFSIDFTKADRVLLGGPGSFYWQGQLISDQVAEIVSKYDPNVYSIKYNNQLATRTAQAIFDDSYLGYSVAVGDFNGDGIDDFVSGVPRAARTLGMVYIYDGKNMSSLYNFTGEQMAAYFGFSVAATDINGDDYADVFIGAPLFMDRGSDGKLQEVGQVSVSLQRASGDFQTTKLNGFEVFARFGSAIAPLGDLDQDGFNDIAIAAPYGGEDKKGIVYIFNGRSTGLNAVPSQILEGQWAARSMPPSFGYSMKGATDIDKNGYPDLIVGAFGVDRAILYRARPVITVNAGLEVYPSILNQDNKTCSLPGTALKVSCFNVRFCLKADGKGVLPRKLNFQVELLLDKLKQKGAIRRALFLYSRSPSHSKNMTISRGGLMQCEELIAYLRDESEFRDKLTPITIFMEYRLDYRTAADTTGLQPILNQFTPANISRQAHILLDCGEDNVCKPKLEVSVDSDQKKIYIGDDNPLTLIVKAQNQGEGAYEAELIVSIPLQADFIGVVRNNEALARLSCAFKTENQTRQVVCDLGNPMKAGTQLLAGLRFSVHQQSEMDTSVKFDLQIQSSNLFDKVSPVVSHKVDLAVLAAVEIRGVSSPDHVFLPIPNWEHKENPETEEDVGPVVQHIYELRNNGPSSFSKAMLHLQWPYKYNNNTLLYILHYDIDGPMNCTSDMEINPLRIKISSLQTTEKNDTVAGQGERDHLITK
Sequence (P06756 891-1048 partner limits assumed): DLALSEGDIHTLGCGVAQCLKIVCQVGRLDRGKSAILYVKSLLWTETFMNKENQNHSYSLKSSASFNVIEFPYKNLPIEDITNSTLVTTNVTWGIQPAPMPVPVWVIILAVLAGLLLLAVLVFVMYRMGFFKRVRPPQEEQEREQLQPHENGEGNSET
Sequence (P05106 27-788): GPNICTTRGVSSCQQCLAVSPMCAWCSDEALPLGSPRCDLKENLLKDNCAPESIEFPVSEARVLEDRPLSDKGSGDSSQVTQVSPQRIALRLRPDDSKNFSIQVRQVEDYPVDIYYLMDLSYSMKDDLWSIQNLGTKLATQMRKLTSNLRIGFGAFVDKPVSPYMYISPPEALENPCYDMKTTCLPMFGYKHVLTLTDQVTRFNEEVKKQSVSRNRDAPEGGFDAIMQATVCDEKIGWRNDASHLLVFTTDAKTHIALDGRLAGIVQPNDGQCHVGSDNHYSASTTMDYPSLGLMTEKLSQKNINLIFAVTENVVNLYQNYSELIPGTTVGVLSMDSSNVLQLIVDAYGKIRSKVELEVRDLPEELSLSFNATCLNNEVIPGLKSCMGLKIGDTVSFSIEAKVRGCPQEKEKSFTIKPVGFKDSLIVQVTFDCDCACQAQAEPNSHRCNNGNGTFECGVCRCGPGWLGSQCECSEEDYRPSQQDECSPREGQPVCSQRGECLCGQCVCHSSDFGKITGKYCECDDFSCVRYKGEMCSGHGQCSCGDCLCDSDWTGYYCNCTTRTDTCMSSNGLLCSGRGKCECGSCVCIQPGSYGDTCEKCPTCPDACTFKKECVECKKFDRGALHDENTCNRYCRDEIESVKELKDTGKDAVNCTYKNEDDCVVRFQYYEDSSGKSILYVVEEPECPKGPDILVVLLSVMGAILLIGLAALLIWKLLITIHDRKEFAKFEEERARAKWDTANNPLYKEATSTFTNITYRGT
Method: The apparent IC50 were calculated using Graph Prism software (≦www.graphpad.com≧).
The samples were analyzed with Coulter XL-MCL flow cytometry. The histogram and mean fluorescence intensity (MFI) were determined. The apparent Kd, IC50 were calculated using Graph Prism software (≦www.graphpad.com≧).

| IC50 [µM] | Compound |
| --- | --- |
| > 20 | CN1CC(=O)N[C@@H](CCCNC(=N)N)C(=O)NCC(=O)N[C@@H](CC(=O)O)C(=O)N[C@H](CC(=O)O)C(=O)NC2(CCOCC2)C(=O)N[C@H](C(N)=O)CSSC[C@H](N)C1=O [LXW36, C-Sar-RGDd-Actp-C] |
| > 20 | N=C(N)NCCC[C@@H]1NC(=O)CNC(=O)[C@H](N)CSSC[C@@H](C(N)=O)NC(=O)C2(CCOCC2)NC(=O)[C@@H](CC(=O)O)NC(=O)[C@H](CC(=O)O)NC(=O)CNC1=O [LXW41, cGRGDd-Actp-C] |
| > 20 | CC(C)[C@H]1NC(=O)[C@@H](CC(=O)O)NC(=O)[C@H](CC(=O)O)NC(=O)CNC(=O)[C@H](CNC(=N)N)NC(=O)CNC(=O)[C@H](N)CSSC[C@H](C(N)=O)NC1=O [LXW58, cG-Agp-GDdvc] (H-[dC]G[Agp]GD[dD][dV][dC]-NH2; disulfide 1-8) |
| > 20 | CC(C)[C@H]1NC(=O)[C@@H](CC(=O)O)NC(=O)[C@H](CC(=O)O)N(C)C(=O)CNC(=O)[C@H](CCCNC(=N)N)NC(=O)CNC(=O)[C@H](N)CSSC[C@H](C(N)=O)NC1=O [LXW55, cGRG-(NMe)Asp-dvc] (H-[dC]GRG[NMeD][dD][dV][dC]-NH2; disulfide 1-8) |
| > 20 | C=CC[C@H]1NC(=O)[C@@H](CC(=O)O)NC(=O)[C@H](CC(=O)O)NC(=O)CNC(=O)[C@H](CCCNC(=N)N)NC(=O)CNC(=O)[C@H](N)CSSC[C@@H](C(N)=O)NC1=O [LXW34, cGRGDd-DAgl-C] |
| > 20 | CC(C)[C@H]1NC(=O)[C@@H](CC(=O)O)NC(=O)[C@H](CC(=O)O)NC(=O)CNC(=O)[C@H](CCCNC(=N)N)NC(=O)CNC(=O)[C@@H](N)CSSC[C@@H](C(N)=O)NC1=O [LXW11, CGRGDdvC] (H-CGRGD[dD][dV]C-NH2; disulfide 1-8) |
| > 20 | CC[C@@H](C)[C@H]1NC(=O)C2(CCC(O)CC2)NC(=O)[C@H](CC(=O)O)NC(=O)CNC(=O)[C@H](CCCNC(=N)N)NC(=O)CN(C)C(=O)[C@H](N)CSSC[C@@H](C(N)=O)NC1=O (stereo partly shown) [LXW42, c-Sar-RGD-Ahch-iC] (H-[dC][Sar]RGD[X2][dI]C-NH2; disulfide 1-8) |
| > 20 | CC(C)[C@H]1NC(=O)[C@@H](CC(=O)O)NC(=O)[C@H](CC(=O)O)NC(=O)CN(C)C(=O)[C@H](CCCNC(=N)N)NC(=O)CNC(=O)[C@H](N)CSSC[C@H](C(N)=O)NC1=O [LXW54, cGR-Sar-Ddvc] (H-[dC]GR[Sar]D[dD][dV][dC]-NH2; disulfide 1-8) |
| > 20 | CC(C)[C@H]1NC(=O)[C@@H](CC(=O)O)NC(=O)[C@H](CC(=O)O)NC(=O)CNC(=O)[C@H](CCCCNC(=N)N)NC(=O)CNC(=O)[C@H](N)CSSC[C@H](C(N)=O)NC1=O [LXW51, cG-HoArg-GDdvc] (H-[dC]G[hArg]GD[dD][dV][dC]-NH2; disulfide 1-8) |
| > 20 | N=C(N)NCCC[C@@H]1NC(=O)CNC(=O)[C@@H](N)CSSC[C@H](C(N)=O)NC(=O)[C@@H]2CC[C@H](c3ccccc3)N2C(=O)CN(CCC(=O)O)C(=O)[C@H](CC(=O)O)NC(=O)CNC1=O [LXW46, CGRGD-Nglu-Ppca-c] (H-CGRGD[N(CH2CH2COOH)Gly][Pro(5R-Ph)][dC]-NH2; disulfide 1-8) |

same assay, conditions: LXW9-92: inhibiting the binding of biotinylated LXW7 against αvβ3-K562 cells; class symbols

| IC50 [µM] | Compound |
| --- | --- |
| 1 to 10 | CC(C)[C@H]1NC(=O)[C@@H](CC(=O)O)NC(=O)[C@H](CC(=O)O)NC(=O)CNC(=O)[C@H](CCCNC(=N)N)NC(=O)CNC(=O)[C@H](NC(=O)c2ccc([N+](=O)[O-])cc2)CSSC[C@H](C(N)=O)NC1=O [LXW82, 4-nitrobezoyl-cGRGDdvc] ({Benzoyl(4-NO2)}-[dC]GRGD[dD][dV][dC]-NH2; disulfide 1-8) |
| 1 to 10 | N=C(N)NCCC[C@@H]1NC(=O)CNC(=O)[C@H](N)CSSC[C@H](C(N)=O)NC(=O)[C@@H](Cc2cscn2)NC(=O)[C@@H](CC(=O)O)NC(=O)[C@H](CC(=O)O)NC(=O)CNC1=O [LXW69, cGRGDd-DTha-c] |
| 1 to 10 | C=CC[C@H]1NC(=O)[C@@H](CC(=O)O)NC(=O)[C@H](CC(=O)O)NC(=O)CNC(=O)[C@H](CCCNC(=N)N)NC(=O)CNC(=O)[C@H](N)CSSC[C@H](C(N)=O)NC1=O [LWX16, cGRGDd-DAgl-c] |
| 1 to 10 | CC(C)[C@H]1NC(=O)[C@@H](CC(=O)O)NC(=O)[C@H](CC(=O)O)NC(=O)CNC(=O)[C@H](CCCNC(=N)N)NC(=O)CNC(=O)[C@H](NC(=O)c2cccnc2)CSSC[C@H](C(N)=O)NC1=O [LXW92, nicotinyl-cGRGDdvc] (Nicotinoyl-[dC]GRGD[dD][dV][dC]-NH2; disulfide 1-8) |
| 1 to 10 | CC(C)[C@H]1NC(=O)[C@@H](CC(=O)O)NC(=O)[C@H](CC(=O)O)NC(=O)CNC(=O)[C@H](CCCNC(=N)N)NC(=O)CNC(=O)[C@H](NC(=O)CC2CCCCC2)CSSC[C@H](C(N)=O)NC1=O [LXW78, cyclohexyl acetyl-cGRGDdvc] (Cyclohexylacetyl-[dC]GRGD[dD][dV][dC]-NH2; disulfide 1-8) |
| > 10 | N=C(N)NCCC[C@@H]1NC(=O)CNC(=O)[C@H](N)CSSC[C@@H](C(N)=O)NC(=O)[C@@H](CC(=O)O)NC(=O)[C@@H](CO)NC(=O)[C@H](CC(=O)O)NC(=O)CNC1=O [LXW62, cGRGDsdC] (H-[dC]GRGD[dS][dD]C-NH2; disulfide 1-8) |
| < 1 | N=C(N)NCCC[C@@H]1NC(=O)CNC(=O)[C@H](N)CSSC[C@H](C(N)=O)NC(=O)[C@@H](Cc2c[nH]c3ccccc23)NC(=O)[C@@H](CC(=O)O)NC(=O)[C@H](CC(=O)O)NC(=O)CNC1=O [LXW68, cGRGDdwc] (H-[dC]GRGD[dD][dW][dC]-NH2; disulfide 1-8) |
| 1 to 10 | CC(C)[C@H]1NC(=O)[C@@H](CC(=O)O)NC(=O)[C@H](CC(=O)O)NC(=O)CNC(=O)[C@H](CCCNC(=N)N)NC(=O)CNC(=O)[C@H](N)CSSC[C@@H](C(N)=O)NC1=O [LXW10, cGRGDdvC] (H-[dC]GRGD[dD][dV]C-NH2; disulfide 1-8) |
| < 1 | Cc1nc(C(=O)N[C@@H]2CSSC[C@H](C(N)=O)NC(=O)[C@@H](C(C)C)NC(=O)[C@@H](CC(=O)O)NC(=O)[C@H](CC(=O)O)NC(=O)CNC(=O)[C@H](CCCNC(=N)N)NC(=O)CNC2=O)cs1 [LXW86, 2-Methylthiazole-4-carbonyl-cGRGDdvc] (X3-[dC]GRGD[dD][dV][dC]-NH2; disulfide 1-8) |
| < 1 | CC(C)[C@H]1NC(=O)[C@@H](CC(=O)O)NC(=O)[C@H](CC(=O)O)NC(=O)CNC(=O)[C@H](CCCNC(=N)N)NC(=O)CNC(=O)[C@H](NC(=O)CCN)CSSC[C@H](C(N)=O)NC1=O [LXW56, 3-amino propanoyl-cGRGDdvc] (H-[βAla][dC]GRGD[dD][dV][dC]-NH2; disulfide 2-9) |
| < 1 | CC(C)[C@H]1NC(=O)[C@@H](CC(=O)O)NC(=O)[C@H](CC(=O)O)NC(=O)CNC(=O)[C@H](CCCNC(=N)N)NC(=O)CNC(=O)[C@H](NC(=O)c2ccc(-c3ccccc3)cc2)CSSC[C@H](C(N)=O)NC1=O [LXW84, biphenyl-4-carbonyl-cGRGDdvc] ({Benzoyl(4-Ph)}-[dC]GRGD[dD][dV][dC]-NH2; disulfide 1-8) |
| 1 to 10 | N=C(N)NCCC[C@@H]1NC(=O)CNC(=O)[C@@H](N)CSSC[C@@H](C(N)=O)NC(=O)[C@@H](Cc2cccc3ccccc23)NC(=O)[C@@H](CC(=O)O)NC(=O)[C@H](CC(=O)O)NC(=O)CNC1=O [LXW47, CGRGDd-DNal1-C] |
| < 1 | CC(C)[C@H]1NC(=O)[C@@H](CC(=O)O)NC(=O)[C@H](CC(=O)O)NC(=O)CNC(=O)[C@H](CCCNC(=N)N)N(C)C(=O)CNC(=O)[C@H](N)CSSC[C@H](C(N)=O)NC1=O [LXW53, cG-(NMe)Arg-GDdvc] (H-[dC]G[NMeR]GD[dD][dV][dC]-NH2; disulfide 1-8) |
| > 10 | N=C(N)NCCC[C@@H]1NC(=O)CNC(=O)[C@H](N)CSSC[C@H](C(N)=O)NC(=O)[C@@H]2CC[C@H](c3ccccc3)N2C(=O)[C@@H](CCCNC(N)=O)NC(=O)[C@H](CC(=O)O)NC(=O)CNC1=O [LXW70, cGRGD-DCit-Ppca-c] (H-[dC]GRGD[dCit][Pro(5R-Ph)][dC]-NH2; disulfide 1-8) |
| > 10 | C#CC[C@H]1NC(=O)[C@@H](CC(=O)O)NC(=O)[C@H](CC(=O)O)NC(=O)CNC(=O)[C@H](CCCNC(=N)N)NC(=O)CN(C)C(=O)[C@H](N)CSSC[C@@H](C(N)=O)NC1=O [LXW37, c-Sar-RGDd-DPra-C] |
| < 1 | CC(C)(C)[C@H]1NC(=O)[C@@H](CC(=O)O)NC(=O)[C@H](CC(=O)O)NC(=O)CNC(=O)[C@H](CCCNC(=N)N)NC(=O)CNC(=O)[C@H](N)CSSC[C@H](C(N)=O)NC1=O [LXW18, cGRGDd-DBug-c] |
| 1 to 10 | N=C(N)NCCC[C@@H]1NC(=O)CNC(=O)[C@H](N)CSSC[C@H](C(N)=O)NC(=O)[C@@H](Cc2csc3ccccc23)NC(=O)[C@@H](CCCNC(N)=O)NC(=O)[C@H](CC(=O)O)NC(=O)CNC1=O [LXW73, cGRGD-DCit-DBta-c] (H-[dC]GRGD[dCit][dBta][dC]-NH2; disulfide 1-8) |
| 1 to 10 | CC(C)[C@H]1NC(=O)[C@@H](CC(=O)O)NC(=O)[C@H](CC(=O)O)NC(=O)CNC(=O)[C@H](CCCNC(=N)N)NC(=O)CNC(=O)[C@H](N)C(C)(C)SSC[C@H](C(N)=O)NC1=O [LXW20, DPen-GRGDdvc] (H-[dPen]GRGD[dD][dV][dC]-NH2; disulfide 1-8) |
| < 1 | N=C(N)NCCC[C@@H]1NC(=O)CNC(=O)[C@H](N)CSSC[C@H](C(N)=O)NC(=O)[C@@H](Cc2csc3ccccc23)NC(=O)[C@@H](CC(=O)O)NC(=O)[C@H](CC(=O)O)NC(=O)CNC1=O [LXW48, cGRGDd-DBta-c] |
| < 1 | CC[C@H]1NC(=O)[C@@H](CC(=O)O)NC(=O)[C@H](CC(=O)O)NC(=O)CNC(=O)[C@H](CCCNC(=N)N)NC(=O)CNC(=O)[C@H](N)CSSC[C@H](C(N)=O)NC1=O [LXW25, cGRGDd-DAbu-c] |
| 1 to 10 | CC(C)[C@H]1NC(=O)[C@@H](CC(=O)O)NC(=O)[C@H](CC(=O)O)NC(=O)CNC(=O)[C@H](CCCNC(=N)N)NC(=O)CCNC(=O)[C@H](N)CSSC[C@H](C(N)=O)NC1=O [LXW15, c-β-alanine-RGDdvc] (H-[dC][βAla]RGD[dD][dV][dC]-NH2; disulfide 1-8) |
